Results reported in PubChem BioAssay AID248 (DTP/NCI, 2004).
Values joined by “and” are separate entries in the source; they are usually repeats but may differ in a detail not shown here. Identical values can stand only once. Inconclusive results and toxic doses are left out. Rule as the data show it: active = T/C of 150% or more; inactive = T/C below 125%.

Tested on: L1210 leukemia ip in BDF1 mice, survival T/C
Assay: NCI In Vivo Anticancer Drug Screen. Data for tumor model L1210 Leukemia (intraperitoneal) in B6D2F1 (BDF1) mice
Conditions: endpoint: mean survival time, higher = longer survival
Summary of the method: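 Survival endpoint. Drug-treated group vs vehicle group, expressed as T divided by C. Tumor passaged by transplantation.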

[1] = dose: 100.0 mg/kg/injection, schedule: Q01DX001 (ip), vehicle: saline
[2] = dose: 75.0 mg/kg/injection, schedule: Q01DX001 (ip), vehicle: saline
[3] = dose: 150.0 mg/kg/injection, schedule: Q01DX001 (ip), vehicle: saline
[4] = dose: 300.0 mg/kg/injection, schedule: Q01DX001 (ip), vehicle: saline
[5] = dose: 100.0 mg/kg/injection, schedule: Q04DX003 (ip), vehicle: saline with Tween-80
[6] = dose: 200.0 mg/kg/injection, schedule: Q04DX003 (ip), vehicle: saline with Tween-80
[7] = dose: 400.0 mg/kg/injection, schedule: Q04DX003 (ip), vehicle: saline with Tween-80
[8] = dose: 100.0 mg/kg/injection, schedule: Q01DX009 (ip), vehicle: Klucel (hydroxypropylcellulose) (HPC)
[9] = dose: 100.0 mg/kg/injection, schedule: Q04DX003 (ip), vehicle: Klucel (hydroxypropylcellulose) (HPC)
[10] = dose: 200.0 mg/kg/injection, schedule: Q01DX009 (ip), vehicle: Klucel (hydroxypropylcellulose) (HPC)
[11] = dose: 50.0 mg/kg/injection, schedule: Q01DX009 (ip), vehicle: Klucel (hydroxypropylcellulose) (HPC)
[12] = dose: 100.0 mg/kg/injection, schedule: Q04DX003 (ip), vehicle: saline
[13] = dose: 25.0 mg/kg/injection, schedule: Q01DX009 (ip), vehicle: saline
[14] = dose: 50.0 mg/kg/injection, schedule: Q01DX009 (ip), vehicle: saline
[15] = dose: 50.0 mg/kg/injection, schedule: Q04DX003 (ip), vehicle: saline

Measured: T/C

C[N+]1(C)CCOC(O)(c2ccccc2)C1 (stereo not given)
inactive: dose: 25.0 mg/kg/injection, schedule: Q01DX001 (ip), vehicle: saline 88 % of control | dose: 50.0 mg/kg/injection, schedule: Q01DX001 (ip), vehicle: saline 98 % of control | [1] 95 % of control and 101 % of control

NCCCNCCCN
inactive: dose: 25.0 mg/kg/injection, schedule: Q04DX002 (ip), vehicle: Klucel (hydroxypropylcellulose) (HPC) 103 % of control | dose: 50.0 mg/kg/injection, schedule: Q04DX002 (ip), vehicle: Klucel (hydroxypropylcellulose) (HPC) 97 % of control | dose: 100.0 mg/kg/injection, schedule: Q04DX002 (ip), vehicle: Klucel (hydroxypropylcellulose) (HPC) 103 % of control and 117 % of control

O=C(Oc1ccc(S(=O)(=O)F)cc1Cl)c1ccccc1Cl
inactive: dose: 100.0 mg/kg/injection, schedule: Q04DX003 (ip), vehicle: carboxymethylcellulose (CMC) 98 % of control | dose: 200.0 mg/kg/injection, schedule: Q04DX003 (ip), vehicle: carboxymethylcellulose (CMC) 95 % of control | dose: 400.0 mg/kg/injection, schedule: Q04DX003 (ip), vehicle: carboxymethylcellulose (CMC) 104 % of control

O=C(O)C1CCC(C(=O)c2ccc([N+](=O)[O-])cc2)CC1 (stereo not given)
inactive: dose: 100.0 mg/kg/injection, schedule: Q04DX003 (ip), vehicle: gum acacia 97 % of control | dose: 200.0 mg/kg/injection, schedule: Q04DX003 (ip), vehicle: gum acacia 93 % of control | dose: 400.0 mg/kg/injection, schedule: Q04DX003 (ip), vehicle: gum acacia 88 % of control

O=C1c2ccccc2C(=O)N1/N=C/c1cc(Cl)cc(Cl)c1O
inactive: [2] 91 % of control | [3] 93 % of control | [4] 93 % of control

Cc1cc(C)cc(C(O)(c2cc(C)cc(C)c2)c2cc(C)cc(C)c2)c1
inactive: [5] 102 % of control | [6] 116 % of control | [7] 94 % of control

Cc1c(C)c(CC#N)c(C)c(C)c1CC#N
inactive: [8] 86 % of control | [9] 91 % of control | [10] 88 % of control | dose: 200.0 mg/kg/injection, schedule: Q04DX003 (ip), vehicle: Klucel (hydroxypropylcellulose) (HPC) 88 % of control | dose: 400.0 mg/kg/injection, schedule: Q04DX003 (ip), vehicle: Klucel (hydroxypropylcellulose) (HPC) 94 % of control

Cc1ccc(C(=O)NCCCOc2ccc([N+](=O)[O-])cc2Cl)cc1S(=O)(=O)F
inactive: dose: 100.0 mg/kg/injection, schedule: Q01DX009 (ip), vehicle: saline with Tween-80 106 % of control | [5] 86 % of control | dose: 200.0 mg/kg/injection, schedule: Q01DX009 (ip), vehicle: saline with Tween-80 96 % of control | [6] 97 % of control | dose: 400.0 mg/kg/injection, schedule: Q01DX009 (ip), vehicle: saline with Tween-80 98 % of control | [7] 103 % of control

O=NN(CCCl)C(=O)Nc1cccc(C(=O)O)c1
inactive: dose: 0.62 mg/kg/injection, schedule: Q01DX001 (ip), vehicle: carboxymethylcellulose (CMC) 117 % of control | dose: 5.0 mg/kg/injection, schedule: Q01DX001 (ip), vehicle: carboxymethylcellulose (CMC) 123 % of control | dose: 12.0 mg/kg/injection, schedule: Q01DX001 (ip), vehicle: saline 121 % of control

O=P(NCCCl)(Nc1ccccc1)Nc1ccccc1
inactive: [11] 112 % of control | [8] 108 % of control | [9] 90 % of control | [10] 108 % of control

CCCCSCC(N)CO (stereo not given)
inactive: [12] 101 % of control | dose: 200.0 mg/kg/injection, schedule: Q04DX003 (ip), vehicle: saline 101 % of control

S=C(NCc1ccccc1)NC1CCCCC1
inactive: [13] 97 % of control | [14] 100 % of control | [15] 92 % of control | dose: 100.0 mg/kg/injection, schedule: Q01DX009 (ip), vehicle: saline 96 % of control | [12] 102 % of control

CCOP(=O)(OCC)Oc1ccc(Sc2ccc(OP(=O)(OCC)OCC)cc2)cc1
inactive: [1] 108 % of control

CCP(=O)(CCP(=O)(c1ccccc1)c1ccccc1)c1ccccc1 (stereo not given)
inactive: dose: 25.0 mg/kg/injection, schedule: Q04DX002 (ip), vehicle: saline with Tween-80 97 % of control | dose: 50.0 mg/kg/injection, schedule: Q04DX002 (ip), vehicle: saline with Tween-80 103 % of control | dose: 100.0 mg/kg/injection, schedule: Q04DX002 (ip), vehicle: saline with Tween-80 106 % of control

C/C(=N\N=C(/C)c1ccc2cc3c(cc2c1)OCO3)c1ccc2cc3c(cc2c1)OCO3
inactive: [2] 97 % of control | [3] 92 % of control | [4] 89 % of control

COc1cc2c(cc1NC(C)=O)C(=O)CCCC2
inactive: dose: 50.0 mg/kg/injection, schedule: Q01DX009 (ip), vehicle: other 92 % of control | dose: 100.0 mg/kg/injection, schedule: Q01DX009 (ip), vehicle: other 95 % of control | dose: 200.0 mg/kg/injection, schedule: Q01DX009 (ip), vehicle: other 92 % of control

C=CCN(CC=C)C(=S)[S-].C=CCN(CC=C)C(=S)[S-].[Zn]
inactive: dose: 1.25 mg/kg/injection, schedule: Q01DX009 (ip), vehicle: saline 101 % of control | dose: 2.5 mg/kg/injection, schedule: Q01DX009 (ip), vehicle: saline 93 % of control | dose: 5.0 mg/kg/injection, schedule: Q01DX009 (ip), vehicle: saline 87 % of control | dose: 5.0 mg/kg/injection, schedule: Q04DX003 (ip), vehicle: saline 90 % of control | dose: 10.0 mg/kg/injection, schedule: Q01DX001 (ip), vehicle: saline 86 % of control | dose: 10.0 mg/kg/injection, schedule: Q04DX003 (ip), vehicle: saline 92 % of control | dose: 20.0 mg/kg/injection, schedule: Q01DX001 (ip), vehicle: saline 95 % of control

COc1ccc(C(=O)/C(Br)=C/C(=O)O)cc1
inactive: dose: 12.5 mg/kg/injection, schedule: Q01DX009 (ip), vehicle: saline 102 % of control and 103 % of control and 108 % of control | dose: 12.5 mg/kg/injection, schedule: Q04DX003 (ip), vehicle: saline 94 % of control | [13] 98 % of control and 108 % of control (2×) | dose: 25.0 mg/kg/injection, schedule: Q04DX002 (ip), vehicle: saline 101 % of control | dose: 25.0 mg/kg/injection, schedule: Q04DX003 (ip), vehicle: saline 94 % of control | [14] 95 % of control and 110 % of control (2×) | dose: 50.0 mg/kg/injection, schedule: Q04DX002 (ip), vehicle: saline 105 % of control | [15] 108 % of control | dose: 100.0 mg/kg/injection, schedule: Q04DX002 (ip), vehicle: saline 112 % of control and 92 % of control

O=C(O)c1ccc(NCCO)cc1
inactive: dose: 75.0 mg/kg/injection, schedule: Q01DX009 (ip), vehicle: Klucel (hydroxypropylcellulose) (HPC) 102 % of control | dose: 150.0 mg/kg/injection, schedule: Q01DX009 (ip), vehicle: Klucel (hydroxypropylcellulose) (HPC) 90 % of control | dose: 300.0 mg/kg/injection, schedule: Q01DX009 (ip), vehicle: Klucel (hydroxypropylcellulose) (HPC) 90 % of control

CC(C)CCNc1ncnc2[nH]ncc12
inactive: dose: 12.5 mg/kg/injection, schedule: Q01DX009 (ip), vehicle: Klucel (hydroxypropylcellulose) (HPC) 117 % of control | dose: 25.0 mg/kg/injection, schedule: Q01DX009 (ip), vehicle: Klucel (hydroxypropylcellulose) (HPC) 104 % of control | [11] 109 % of control
